Consider two compounds from patent publication US20030228395A1, “Isotropic transparent structured fluids” (Archer-Daniels Midland Company, priority 2002, published 2003).

The nature of data set [1]: Effect of pH on stability of micro-emulsions. It counts as physicochemical. As to conditions: maximum tocopherol acetate, line 6.4 of Example 1, dilutions 50%, 60%, 70%, 80%; buffer pH 3.4, 3.8, 5.4, 7.0, 8.6 replacing water. The text has this:
A buffer of different pH values (3.4, 3.8, 5.4, 7.0 and 8.6) replaced the water in the aqueous phase.

On data set [2], the source says:
FIG. 6. […] The values assign the maximum amount of vitamin E that can be solubilized as a wt/wt percentage of the total micro-emulsion weight.
The maximum amount of vitamin E solubilized was compared among the different forms of vitamin E along line 6:4 in the five-component system of D-limonene/ethanol (1/1) as the oil phase, TWEEN 60 as surfactant, and water/1,2-propanediol (1/1) as the aqueous phase, in order to obtain insight into the difference in their interfacial behavior (FIG. 6).

For the compound `CC(=O)Oc1c(C)c(C)c2c(c1C)CCC(C)(CCC[C@H](C)CCC[C@H](C)CCCC(C)C)O2` (stereo partly drawn) [Tocopherol Acetate, tocopherol acetate], in data set [1], the “stability of micro-emulsions at different pH” value is “stable for over two months”. On to `Cc1c(C)c2c(c(C)c1O)CC[C@@](C)(CCC[C@H](C)CCC[C@H](C)CCCC(C)C)O2` [alpha-tocopherol], for which, in data set [2], the “solubilization capacity along the dilution line” value is on record as “two main dramatic decreases in solubilization, after which a stabilization in solubilization is maintained” and the “solubilization capacity when D-limonene was replaced by triacetin” value was “increased along all of the dilution line”.
